# Measured values published in publication PMC6102691, “Identification of a novel ligand for the ATAD2 bromodomain with selectivity over BRD4 through a fragment growing approach” (Organic & Biomolecular Chemistry, 2018).
# Experiments:
# [1] = target: T1, GST-ATAD2 bromodomain / biotinylated acetylated histone H4 peptide (Homo sapiens, UniProt Q6PL18); assay: ATAD2-histone displacement HTRF assay; assay type: binding; conditions: for ATAD2 inhibition in HTRF, in words: highest concentration assayed 1000 μM; for IC50: HTRF format assay, highest concentration 1000 μM; for ATAD2 LE: Ligand efficiency (LE) = 1.4(–log IC50)/N, N = number of non-hydrogen atoms, from HTRF IC50
# T1 construct: 981-1108; made in house; host or cells: Escherichia coli BL21 (DE3) pLysS, plasmid pGEX-6P-1
# T1 sequence (Q6PL18 981-1108): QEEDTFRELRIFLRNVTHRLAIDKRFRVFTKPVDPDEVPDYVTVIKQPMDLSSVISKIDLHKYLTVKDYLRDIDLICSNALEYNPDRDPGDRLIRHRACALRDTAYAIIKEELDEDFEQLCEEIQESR
# Description: (§1) Surface plasmon resonance (SPR) was used to assess the direct binding of the fragments and provide Kd values for binding to both ATAD2 and BRD4. SPR can yield artefactual data where the concentration of a small-molecular analyte exceeds ∼250 μM, and accordingly, this was the highest concentration used in the assays.
# 1.1 Protein Purification.
# The ATAD2 bromodomain 981-1108 was expressed with an N-terminal GST fusion from the pGEX-6P-1 plasmid. The plasmids were transformed into BL21 (DE3) pLysS Escherichia coli (Novagen) and then the cells grown in luria bertani (LB) media at 37 °C until an OD600 of 0.6 was reached. The temperature was reduced to 20 °C and expression induced using 0.2 mM Isopropyl β-D-1-thiogalactopyranoside (IPTG). The cells were harvested after overnight incubation and resuspended in buffer A (20 mM HEPES pH 7.4, 100 mM NaCl, 5 mM Dithiothreitol (DTT)). The cells were lysed by sonication and the lysate cleared by centrifugation (50,000 x g, 4 °C, 1 hr). The protein was passed over 5ml of glutathione Sepharose 4B resin (GE Healthcare) at 4 °C. The resin was then washed with buffer A and the protein eluted with buffer A supplemented with 10 mM glutathione. The protein was then applied to a Superdex 200 26/60 gel filtration column (GE Healthcare) equilibrated in buffer […]
# 1.2 Isothermal Titration Calorimetry.
# ATAD2 was exchanged into ITC buffer (50 mM HEPES pH7.4, 200 mM NaCl, 1 mM DTT).
# ITC measurements were carried out at 25°C on a Microcal ITC 200 (Malvern Instruments Ltd, Malvern, UK). Compound 11 at 40mM, 2% DMSO was titrated into ATAD2 prepared in the cell at 150 μM, 2% DMSO. Titrations began with an initial 0.5 μL injection followed by 19x 2 μL injections of compound, with 120s spacing between each injection, and stirred at 1000 rpm throughout the experiment. Data were then analysed using Origin 7.0 (OriginLab Corp., Burlington, NC, USA) and fit with the one-set-of-sites model.
# 1.3 ATAD2-Histone displacement HTRF assay.
# Compounds (dissolved to 100 mM in DMSO) were dispensed into black 384 well assay plates […]
# (§2) 12.5 μM using an Echo 550 (Labcyte). Each well was backfilled to a final volume of 200 nl (for the […]), resulting in final DMSO concentrations of 2 %. 5 μl of GST-ATAD2 was added to each well and incubated for 30mins resulting in a final concentration of 5 nM.
# (§3) 5μl of biotinylated-histone H4 peptide (SGRG-K(Ac)-GG-K(Ac)-GLG-K(Ac)-GGA-K(Ac)- RHRKVGG-K(Biotin)) was then added to each well at a final concentration of 500nM. Both GST-ATAD2 and peptide were diluted in buffer B (50 mM Tris pH 7.5, […], 1 mM DTT, 100 μg/ml bovine serum albumin (BSA)). The plate was then incubated at room temperature for 30mins and then 5 μl LanthaScreen® Tb-anti-GST Antibody (Life Technologies) at final concentration of 5 nM was added to each well and incubated for an additional 30mins. 5 μl of streptavidin-XLL65 (Cisbio Assay) at a final concentration of […] was added to each assay well. Both dyes were diluted in buffer C (50 mM Tris pH 7.5, […], 100 μg/ml BSA). The plate was incubated at room temperature for a further 30mins and then read using a PheraStar FS (BMG Labtech). The data were analysed using Graphpad […]
# (§4) 1.4 Surface Plasmon Resonance (SPR).
# (§5) SPR-based ligand binding assays were performed using Biacore S200 (GE Healthcare) at 25 °C using single cycle affinity.
# (§6) ATAD2N1064A was achieved using standard amine coupling on a CM5 chip surface. The surface was prepared through activation with EDC/NHS, followed by injection of 10 µg/ml of respective proteins until target level 8000 RU was reached. The surface was then quenched using 1 M Ethanolamine and washed with running buffer 10 mM HEPES, 150mM NaCl, 0.01% TWEEN20, 0.5 mM TCEP and 1% DMSO with a flow rate of […]. Compounds were injected in a dose-response manner (8 concentration points ranging from 0-200 µM) in series across the control, ATAD2, BRD4, and ATAD2-N1064A flow cells using solvent correction to account for bulk refractive index changes. The reference control channel was subtracted
# ATAD2 bromodomain = target: T2, ATAD2 bromodomain (Homo sapiens, UniProt Q6PL18); assay: Surface plasmon resonance (SPR) direct binding to ATAD2; conditions: for Kd: SPR format assay, Kd above the top concentration projected by extrapolation (extrapolated Rmax from control compound)
# T2 construct: 981-1108; GST (N); made in house; host or cells: Escherichia coli BL21 (DE3) pLysS, plasmid pGEX-6P-1
# T2 sequence (Q6PL18 981-1108): T1 sequence (Q6PL18 981-1108)
# Description: as §1, §2, §3, §4, §5
# as §6, with “subtracted […]” for “subtracted”
# (§7) from immobilised channels and dose-response data was fitted using a steady state constant Rmax 1:1 binding model, using an extrapolated Rmax determined from a binding control compound in those cases where the extrapolated Kd value was greater than the top concentration used in the experiment (200 µM). K d values are reported to the nearest 100th of micromolar. 1 […]
# (§8) Crystallisation was performed at 20 °C using the hanging drop vapor diffusion method.
# (§9) Crystals of ATAD2 were grown by mixing 2µl ATAD2 at 7mg/ml and 2µl precipitant containing 0.1 M BIS-TRIS pH 6.5 and 2.0 M ammonium sulfate. Crystals were harvested in a diffusion solution containing 10 mM compound, 5% DMSO, 25 mM HEPES pH 7.5, 75 mM NaCl, 50 mM BIS-TRIS pH 6.5 and 1.0 M Ammonium Sulfate for 48hrs. Prior to data collection the crystals were cryo protected with the addition of 25% (v/v) ethylene glycol to the diffusion solution. X-ray diffraction data were recorded at Diamond Light Source (Harwell, Oxfordshire, UK). Data processing was carried out using XDS, POINTLESS/AIMLESS2 and other programs of the CCP4i suite3 run through the CCP4i2 gui. Structures were solved by molecular replacement using PHASER4 and pdb 3DAI as a starting model. REFMAC5 was employed for refinement, and model building was performed using COOT6. PDBs were deposited within the protein database www.pdb.org using accession codes: 11 XXXX, 15a […]
# BRD4 = BRD4 (Homo sapiens, UniProt O60885); assay: Surface plasmon resonance (SPR) direct binding to BRD4; conditions: for Kd: SPR format assay, Kd above the top concentration projected by extrapolation (extrapolated Rmax from control compound); for selectivity between ATAD2 and BRD4, in words: BRD4 versus ATAD2
# Description: Surface plasmon resonance (SPR) was used to assess the direct binding of the fragments and provide Kd values for binding to both ATAD2 and BRD4. SPR can yield artefactual data where the concentration of a small-molecular analyte exceeds ∼250 μM, and accordingly, this was the highest concentration used in the assays. Where the Kd exceeded this limit, projected Kds were determined by extrapolation, using the observed response units for compound binding (RU) relative to the molecular weight of a known control compound.[23]
# as §2, §3, §4, §5
# as §6, with “subtracted […]” for “subtracted”
# as §7, §8, §9
compound,measurement,setting,value
Cn1cc2c(cc1=O)C(C)(C)C(=O)N2 [Compound 7],"ATAD2 inhibition in HTRF, in words",[1],some inhibition was observed at the highest concentration assayed
same,"ATAD2 binding by SPR, in words",ATAD2 bromodomain; SPR,bound too weakly to ATAD2 to allow Kd values to be calculated
same,Kd,BRD4,> 2000 µM
CCN1C(=O)C(C)(C)c2cc(=O)n(C)cc21 [Compound 14a],IC50,[1],> 1000 µM
same,"ATAD2 inhibition in HTRF, in words",[1],some inhibition was observed at the highest concentration assayed
same,Kd,ATAD2 bromodomain,> 200 µM
same,binding constant towards ATAD2 relative to BRD4 (fold weaker),"ATAD2 bromodomain; SPR, ATAD2 Kd versus BRD4 Kd",100 fold
same,Kd,BRD4,12.7 µM
Cn1cc2c(cc1=O)C(C)(C)C(=O)N2Cc1ccccc1 [Compound 14b],IC50,[1],810 ± 57 µM
same,"ATAD2 inhibition in HTRF, in words",[1],sub-millimolar HTRF IC50 values
same,ATAD2 LE,[1],0.21
same,Kd,ATAD2 bromodomain,> 2000 µM
same,Kd,BRD4,> 200 µM
Cn1cc2c(cc1=O)C(C)(C)C(=O)N2CCc1ccccc1 [Compound 14c],IC50,[1],868 ± 33 µM
same,"ATAD2 inhibition in HTRF, in words",[1],sub-millimolar HTRF IC50 values
same,ATAD2 LE,[1],0.19
same,Kd,ATAD2 bromodomain,> 200 µM
same,Kd,BRD4,> 200 µM
Cn1cc2c(cc1=O)C(C)(C)C(=O)N2CCN1CCCC1 [Compound 14d],IC50,[1],> 1000 µM
same,Kd,ATAD2 bromodomain,> 2000 µM
same,Kd,BRD4,> 200 µM
Cn1cc2c(cc1=O)C(C)(C)C(=O)N2CCN1CCOCC1 [Compound 14e],IC50,[1],> 1000 µM
same,Kd,ATAD2 bromodomain,> 2000 µM
same,Kd,BRD4,> 2000 µM
Cn1cc2c(cc1=O)C(C)(C)C(=O)N2CCO [Compound 14g],IC50,[1],> 1000 µM
same,Kd,ATAD2 bromodomain,> 2000 µM
same,Kd,BRD4,> 2000 µM
CC1(C)C(=O)Nc2cn(Cc3ccccc3)c(=O)cc21 [Compound 15c],IC50,[1],> 1000 µM
same,Kd,ATAD2 bromodomain,> 200 µM
same,Kd,BRD4,> 200 µM
CN1C(=O)C(C)(C)c2cc(=O)n(C)cc21 [Compound 17a],IC50,[1],> 1000 µM
same,"ATAD2 inhibition in HTRF, in words",[1],some inhibition was observed at the highest concentration assayed
same,"ATAD2 binding by SPR, in words",ATAD2 bromodomain; SPR,bound too weakly to ATAD2 to allow Kd values to be calculated
same,Kd,ATAD2 bromodomain,> 2000 µM
same,"BRD4 binding by SPR, in words",BRD4; SPR,detectable binding to BRD4
same,Kd,BRD4,> 200 µM
CCCn1cc2c(cc1=O)C(C)(C)C(=O)N2C [Compound 17b],IC50,[1],> 1000 µM
same,Kd,ATAD2 bromodomain,> 2000 µM
same,Kd,BRD4,> 200 µM
CN1C(=O)C(C)(C)c2cc(=O)n(Cc3ccccc3)cc21 [Compound 17c],IC50,[1],681 ± 120 µM
same,"ATAD2 inhibition in HTRF, in words",[1],sub-millimolar ATAD2 IC50 values
same,ATAD2 LE,[1],0.21
same,Kd,ATAD2 bromodomain,> 200 µM
same,Kd,BRD4,101 µM
same,"selectivity between ATAD2 and BRD4, in words",BRD4; SPR,bound more tightly to BRD4 than to ATAD2
CN1C(=O)C(C)(C)c2cc(=O)n(CCc3ccccc3)cc21 [Compound 17d],IC50,[1],741 ± 74 µM
same,"ATAD2 inhibition in HTRF, in words",[1],sub-millimolar ATAD2 IC50 values
same,ATAD2 LE,[1],0.20
same,Kd,ATAD2 bromodomain,> 200 µM
same,Kd,BRD4,161 µM
same,"selectivity between ATAD2 and BRD4, in words",BRD4; SPR,bound more tightly to BRD4 than to ATAD2
COC(=O)c1ccc(Cn2cc3c(cc2=O)C(C)(C)C(=O)N3C)cc1 [Compound 17e],IC50,[1],651 ± 1 µM
same,ATAD2 LE,[1],0.18
same,Kd,ATAD2 bromodomain,> 200 µM
same,Kd,BRD4,141 µM
CN1C(=O)C(C)(C)c2cc(=O)n(Cc3ccc(C(=O)O)cc3)cc21 [Compound 17f],IC50,[1],533 ± 40 µM
same,ATAD2 LE,[1],0.19
same,Kd,ATAD2 bromodomain,> 200 µM
same,Kd,BRD4,> 200 µM
CN1C(=O)C(C)(C)c2cc(=O)n(Cc3ccc(C#N)cc3)cc21 [Compound 17g],IC50,[1],562 ± 67 µM
same,ATAD2 LE,[1],0.20
same,Kd,ATAD2 bromodomain,> 200 µM
same,Kd,BRD4,142 µM
CN1C(=O)C(C)(C)c2cc(=O)n(Cc3ccc(C(N)=O)cc3)cc21 [Compound 17h],IC50,[1],680 ± 66 µM
same,ATAD2 LE,[1],0.18
same,Kd,ATAD2 bromodomain,> 200 µM
same,Kd,BRD4,> 200 µM
CN1C(=O)C(C)(C)c2cc(=O)n(Cc3ccc(S(C)(=O)=O)cc3)cc21 [Compound 17i],IC50,[1],359 ± 37 µM
same,ATAD2 LE,[1],0.19
same,Kd,ATAD2 bromodomain,> 200 µM
same,Kd,BRD4,200 µM
